These are literature values, as cited in patent US8076449B2, “Therapeutic agents of colivelin for neurodegenerative diseases” (Tomohiro Chiba, priority 2004, dated 2011).

In series [1] the test system is primary cultured cortical neurons treated with Aβ (1-43). The conditions noted are these: Aβ (1-43) neurotoxicity; stated as known fact; cited from earlier work.
Series [2] relates to F11 cells transformed with M146L-PS1. The conditions noted are these: as already reported; cited from earlier work.

Turning to “HNG: Humanin (HN) derivative whose serine residue at the position 14 is replaced by glycine (MAPRGFSCLLLLTGEIDLPVKRRA; Humanin; UniProt Q8IVG9 1-24, looked up, variant S14G)”, in series [1], the “concentration exerting complete protective action” value was 10 nM. Moreover, in series [2], the “concentration completely suppressing cell death caused by M146L-PS1” value is on record as 100 nM.
